Tests used:
[1] = tested on: IL-13 induced STAT6 phosphorylation in BEAS-2B human lung epithelial cells; assay: Cellular JAKI potency assay (BEAS-2B); format: cell-based; conditions: Homo sapiens, BEAS-2B, BEAS-2B cells, read-out: BEAS2B pIC50 (converted)
Method in brief: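 BEAS-2B cells were preincubated with compound (0.1% DMSO) in HBSS/HEPES/BSA for 1 h at 37 °C, then stimulated with IL-13 (80 ng/mL before addition) for 30 min. After lysis, pSTAT6 (Tyr641) was quantified by AlphaLISA SureFire; IC50 from a 4-parameter fit of percent inhibition, reported as pIC50.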

JAK1 = JAK1 (Homo sapiens (Human), UniProt P23458); assay: Biochemical JAK kinase assay (LanthaScreen), JAK1; conditions: for Ki: read-out: JAK1 pKi (converted)
Sequence of JAK1 (P23458 whole entry): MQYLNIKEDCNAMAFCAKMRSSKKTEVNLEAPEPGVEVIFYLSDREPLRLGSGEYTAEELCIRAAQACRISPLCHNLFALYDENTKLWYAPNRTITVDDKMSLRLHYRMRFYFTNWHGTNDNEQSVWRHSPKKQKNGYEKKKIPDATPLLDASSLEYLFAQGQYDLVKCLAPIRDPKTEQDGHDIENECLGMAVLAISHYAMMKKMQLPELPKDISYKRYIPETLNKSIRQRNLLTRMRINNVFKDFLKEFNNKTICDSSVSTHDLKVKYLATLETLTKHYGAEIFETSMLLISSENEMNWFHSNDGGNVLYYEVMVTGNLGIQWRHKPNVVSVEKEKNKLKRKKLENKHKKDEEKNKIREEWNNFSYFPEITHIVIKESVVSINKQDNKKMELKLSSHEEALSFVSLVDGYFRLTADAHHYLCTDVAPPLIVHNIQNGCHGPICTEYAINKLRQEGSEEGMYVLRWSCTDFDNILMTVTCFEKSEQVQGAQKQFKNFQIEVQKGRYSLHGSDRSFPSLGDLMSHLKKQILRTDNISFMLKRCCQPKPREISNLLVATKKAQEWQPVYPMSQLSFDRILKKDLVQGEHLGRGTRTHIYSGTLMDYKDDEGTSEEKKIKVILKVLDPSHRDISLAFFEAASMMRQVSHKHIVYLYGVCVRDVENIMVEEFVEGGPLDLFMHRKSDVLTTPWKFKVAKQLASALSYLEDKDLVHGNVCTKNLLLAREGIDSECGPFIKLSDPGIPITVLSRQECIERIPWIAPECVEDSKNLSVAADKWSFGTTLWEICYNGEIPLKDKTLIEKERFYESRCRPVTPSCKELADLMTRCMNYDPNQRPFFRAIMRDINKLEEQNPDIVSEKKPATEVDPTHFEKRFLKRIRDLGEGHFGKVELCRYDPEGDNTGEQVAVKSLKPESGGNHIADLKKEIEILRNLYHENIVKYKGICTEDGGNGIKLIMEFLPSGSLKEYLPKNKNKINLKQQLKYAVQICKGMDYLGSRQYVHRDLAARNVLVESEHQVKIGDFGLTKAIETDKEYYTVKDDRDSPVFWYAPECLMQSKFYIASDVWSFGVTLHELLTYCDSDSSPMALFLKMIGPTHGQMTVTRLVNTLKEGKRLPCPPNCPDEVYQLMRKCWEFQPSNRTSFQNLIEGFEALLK
Method in brief: (§1)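 LanthaScreen format: phospho-STAT1 (pTyr701) detected with 2 nM Tb antibody after 10 mM EDTA quench. Kinase step used Km-level ATP and 200 nM STAT1 peptide, 1 h at ambient after 1 h pre-incubation. Inhibition fitted to IC50, reported as pKi.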

JAK2 = JAK2 (Homo sapiens (Human), UniProt O60674); assay: Biochemical JAK kinase assay (LanthaScreen), JAK2; conditions: for Ki: read-out: JAK2 pKi (converted)
Sequence of JAK2 (O60674 whole entry): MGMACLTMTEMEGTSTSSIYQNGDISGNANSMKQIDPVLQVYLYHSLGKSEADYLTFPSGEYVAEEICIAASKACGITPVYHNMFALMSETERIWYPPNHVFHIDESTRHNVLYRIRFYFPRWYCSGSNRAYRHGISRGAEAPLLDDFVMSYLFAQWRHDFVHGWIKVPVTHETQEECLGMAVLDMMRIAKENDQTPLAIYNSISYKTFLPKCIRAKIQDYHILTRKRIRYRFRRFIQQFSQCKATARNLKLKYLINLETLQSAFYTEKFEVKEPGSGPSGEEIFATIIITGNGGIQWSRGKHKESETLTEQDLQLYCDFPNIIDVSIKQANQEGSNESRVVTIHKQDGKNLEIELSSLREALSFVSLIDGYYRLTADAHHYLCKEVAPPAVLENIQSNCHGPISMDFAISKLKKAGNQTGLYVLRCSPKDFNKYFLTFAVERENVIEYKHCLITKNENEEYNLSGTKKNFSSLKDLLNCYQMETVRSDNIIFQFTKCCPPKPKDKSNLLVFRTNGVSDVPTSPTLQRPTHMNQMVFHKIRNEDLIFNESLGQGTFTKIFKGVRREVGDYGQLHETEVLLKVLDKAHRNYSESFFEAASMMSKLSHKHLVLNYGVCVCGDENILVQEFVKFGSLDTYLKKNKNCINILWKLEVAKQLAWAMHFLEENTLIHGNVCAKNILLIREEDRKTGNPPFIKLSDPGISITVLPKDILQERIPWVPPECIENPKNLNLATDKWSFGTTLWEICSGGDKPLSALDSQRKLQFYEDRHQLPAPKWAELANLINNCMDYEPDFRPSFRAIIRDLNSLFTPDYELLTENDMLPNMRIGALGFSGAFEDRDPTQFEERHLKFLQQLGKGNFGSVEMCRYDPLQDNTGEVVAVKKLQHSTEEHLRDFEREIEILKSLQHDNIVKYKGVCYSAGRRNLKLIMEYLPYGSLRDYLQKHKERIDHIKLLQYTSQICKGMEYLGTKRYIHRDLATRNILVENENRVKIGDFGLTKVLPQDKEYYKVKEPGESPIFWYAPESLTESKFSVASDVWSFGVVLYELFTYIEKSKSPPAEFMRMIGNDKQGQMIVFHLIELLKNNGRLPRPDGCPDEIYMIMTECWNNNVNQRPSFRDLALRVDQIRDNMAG
Method in brief: as §1

Row | Structure (SMILES) | IC50 [1] | Ki (JAK1) | JAK2 pKi (JAK2) | JAK1 pKi (JAK1) | Ki (JAK2)
1 | CCc1cc(O)ccc1-c1ccc2c(-c3nc(C4=CCN(CC(=O)NC)C4)c[nH]3)n[nH]c2c1 [Example 93] | 3.16 to 10 nM | 0.1 to 1 nM | A (A represents a pKi value ≥10 (Ki≤0.1 nM)) |  | 
2 | CCc1cc(O)ccc1-c1ccc2c(-c3nc(C4=CCN(CCNC(C)=O)CC4)c[nH]3)n[nH]c2c1F [Example 107] | 10 to 31.6 nM |  | A (A represents a pKi value ≥10 (Ki≤0.1 nM)) | A (A represents a pKi value ≥10 (Ki≤0.1 nM)) | 
3 | CCc1cc(O)ccc1-c1ccc2c(-c3nc(C4=CCN(C(=O)CNCCOC)C4)c[nH]3)n[nH]c2c1F [Example 362] | 31.6 to 100 nM | 0.1 to 1 nM | A (A represents a pKi value ≥10 (Ki≤0.1 nM)) |  | 
4 | CCc1cc(O)ccc1-c1ccc2c(-c3nc(C4=CCN(CCCNC(=O)C(C)C)CC4)c[nH]3)n[nH]c2c1 [Example 117] | 3.16 to 10 nM |  | A (A represents a pKi value ≥10 (Ki≤0.1 nM)) | A (A represents a pKi value ≥10 (Ki≤0.1 nM)) | 
5 | CCc1cc(O)ccc1-c1ccc2c(-c3nc(C4=CCN(CCCNC(C)=O)CC4)c[nH]3)n[nH]c2c1 [Example 104] | 3.16 to 10 nM |  | A (A represents a pKi value ≥10 (Ki≤0.1 nM)) | A (A represents a pKi value ≥10 (Ki≤0.1 nM)) | 
6 | CCc1cc(O)ccc1-c1ccc2c(-c3nc(C4=CCCN(CCc5ccccc5)C4)c[nH]3)n[nH]c2c1 [Example 139] | 100 to 316 nM | 1 to 10 nM |  |  | 0.1 to 1 nM
7 | CCc1cc(O)ccc1-c1ccc2c(-c3nc(C4=C(C)CCNC4)c[nH]3)n[nH]c2c1 [Example 232] | 3.16 to 10 nM | 0.1 to 1 nM |  |  | 0.1 to 1 nM
8 | CCc1cc(O)ccc1-c1ccc2c(-c3nc(C4=CCN(C[C@H]5COCCN5)CC4)c[nH]3)n[nH]c2c1F [Example 190] | 31.6 to 100 nM | 0.1 to 1 nM |  |  | 0.1 to 1 nM
9 | CCc1cc(O)ccc1-c1ccc2c(-c3nc(C4=CCN(CCC(=O)NC)C4)c[nH]3)n[nH]c2c1 [Example 95] | 10 to 31.6 nM |  | A (A represents a pKi value ≥10 (Ki≤0.1 nM)) | A (A represents a pKi value ≥10 (Ki≤0.1 nM)) | 
10 | CCc1cc(O)ccc1-c1ccc2c(-c3nc(C4=C(C(=O)OC(C)C)CNCC4)c[nH]3)n[nH]c2c1F [Example 325] | 10 to 31.6 nM | 0.1 to 1 nM |  |  | 0.1 to 1 nM
11 | CCc1cc(O)ccc1-c1ccc2c(-c3nc(C4=CCN([C@H]5CC[C@](C)(O)CC5)C4)c[nH]3)n[nH]c2c1F [Example 330] | 10 to 31.6 nM |  |  | A (A represents a pKi value ≥10 (Ki≤0.1 nM)) | 0.1 to 1 nM
12 | CCc1cc(O)ccc1-c1ccc2c(-c3nc(C4=CCN(C5CC(O)C5)C4)c[nH]3)n[nH]c2c1 (stereo not drawn) [Example 52] | 3.16 to 10 nM |  | A (A represents a pKi value ≥10 (Ki≤0.1 nM)) | A (A represents a pKi value ≥10 (Ki≤0.1 nM)) | 
13 | CCc1cc(O)ccc1-c1ccc2c(-c3nc(C4=C[C@H](CO)N(CCCOC)C4)c[nH]3)n[nH]c2c1F [Example 272] | 3.16 to 10 nM |  | A (A represents a pKi value ≥10 (Ki≤0.1 nM)) | A (A represents a pKi value ≥10 (Ki≤0.1 nM)) | 
14 | CCc1cc(O)ccc1-c1ccc2c(-c3nc(C4=C[C@H](CO)N(CCC(C)(C)O)C4)c[nH]3)n[nH]c2c1F [Example 329] | 10 to 31.6 nM |  | A (A represents a pKi value ≥10 (Ki≤0.1 nM)) | A (A represents a pKi value ≥10 (Ki≤0.1 nM)) | 
15 | CCc1cc(O)ccc1-c1ccc2c(-c3nc(C4=C[C@H](CO)N(Cc5cnoc5)C4)c[nH]3)n[nH]c2c1F [Example 355] | 31.6 to 100 nM | 0.1 to 1 nM |  |  | 0.1 to 1 nM
16 | CCc1cc(O)ccc1-c1ccc2c(-c3nc(C4=CCN[C@@H](C)C4)c[nH]3)n[nH]c2c1F [Example 311] | 10 to 31.6 nM | 0.1 to 1 nM |  |  | 0.1 to 1 nM
17 | CCc1cc(O)ccc1-c1ccc2c(-c3nc(C4=CCN(C(=O)[C@H](CO)NC)C4)c[nH]3)n[nH]c2c1F [Example 385] | 31.6 to 100 nM | 0.1 to 1 nM | A (A represents a pKi value ≥10 (Ki≤0.1 nM)) |  | 
18 | CCc1cc(O)ccc1-c1ccc2c(-c3nc(C4=CCN(C(=O)CN(CCO)CCO)C4)c[nH]3)n[nH]c2c1F [Example 364] | 31.6 to 100 nM | 0.1 to 1 nM | A (A represents a pKi value ≥10 (Ki≤0.1 nM)) |  | 

Row | Structure (SMILES) | IC50 [1] | Ki (JAK1) | JAK2 pKi (JAK2) | JAK1 pKi (JAK1) | Ki (JAK2)
19 | CCc1cc(O)ccc1-c1ccc2c(-c3nc(C4=CC[C@H](C)N([C@H]5C[C@H](O)C5)C4)c[nH]3)n[nH]c2c1F [Example 337] | 10 to 31.6 nM | 0.1 to 1 nM |  |  | 0.1 to 1 nM
20 | CCc1cc(O)ccc1-c1ccc2c(-c3nc(C4=CCN(Cc5ccccc5)CC4)c[nH]3)n[nH]c2c1 [Example 130] | 31.6 to 100 nM | 0.1 to 1 nM |  |  | 1 to 10 nM
21 | CCc1cc(O)ccc1-c1ccc2c(-c3nc(C4=CCN(Cc5c[nH]nn5)C4)c[nH]3)n[nH]c2c1 [Example 144] | 10 to 31.6 nM |  | A (A represents a pKi value ≥10 (Ki≤0.1 nM)) | A (A represents a pKi value ≥10 (Ki≤0.1 nM)) | 
22 | CCc1cc(O)ccc1-c1ccc2c(-c3nc(C4=CCN(CC(=O)NC(C)(C)C)CC4)c[nH]3)n[nH]c2c1F [Example 83] | 31.6 to 100 nM | 1 to 10 nM |  |  | 0.1 to 1 nM
23 | CCc1cc(O)ccc1-c1ccc2c(-c3nc(C4=CCN(C(=O)OC)CC4)c[nH]3)n[nH]c2c1 [Example 149] | 31.6 to 100 nM | 1 to 10 nM |  |  | 1 to 10 nM
24 | CCc1cc(O)ccc1-c1ccc2c(-c3nc(C4=CCN(CCN5CCNC5=O)C4)c[nH]3)n[nH]c2c1 [Example 127] | 10 to 31.6 nM | 0.1 to 1 nM |  |  | 0.1 to 1 nM
25 | CCc1cc(O)ccc1-c1ccc2c(-c3nc(C4=CC[C@H](C)N(CCS(C)(=O)=O)C4)c[nH]3)n[nH]c2c1F [Example 276] | 31.6 to 100 nM | 1 to 10 nM |  |  | 0.1 to 1 nM
26 | CCc1cc(O)ccc1-c1ccc2c(-c3nc(C4=C[C@@H](COC)NC4)c[nH]3)n[nH]c2c1 [Example 242] | 3.16 to 10 nM |  |  | A (A represents a pKi value ≥10 (Ki≤0.1 nM)) | 0.1 to 1 nM
27 | Oc1ccc(-c2ccc3c(-c4nc(C5=CCNC5)c[nH]4)n[nH]c3c2)c(CC(F)(F)F)c1 [Example 378] | 31.6 to 100 nM | 0.1 to 1 nM |  |  | 0.1 to 1 nM
28 | CCc1cc(O)ccc1-c1ccc2c(-c3nc(C4=CCN(C(C)=O)C4)c[nH]3)n[nH]c2c1F [Example 171] | 10 to 31.6 nM | 0.1 to 1 nM |  |  | 0.1 to 1 nM
29 | CCc1cc(O)ccc1-c1ccc2c(-c3nc(C4=CCN(Cc5cnoc5)CC4)c[nH]3)n[nH]c2c1F [Example 326] | 10 to 31.6 nM | 0.1 to 1 nM |  |  | 0.1 to 1 nM
30 | CCc1cc(O)c(F)cc1-c1ccc2c(-c3nc(C4=CCNCC4)c[nH]3)n[nH]c2c1 [Example 284] | 3.16 to 10 nM |  | A (A represents a pKi value ≥10 (Ki≤0.1 nM)) | A (A represents a pKi value ≥10 (Ki≤0.1 nM)) | 
31 | CCc1cc(O)ccc1-c1ccc2c(-c3nc(C4=CCN(CCS(C)(=O)=O)CC4)c[nH]3)n[nH]c2c1 [Example 77] | 10 to 31.6 nM | 0.1 to 1 nM | A (A represents a pKi value ≥10 (Ki≤0.1 nM)) |  | 
32 | CCc1cc(O)ccc1-c1ccc2c(-c3nc(C4=C[C@@H](C)N[C@@H](C)C4)c[nH]3)n[nH]c2c1 (racemic) [Example 366] | 31.6 to 100 nM | 0.1 to 1 nM |  |  | 0.1 to 1 nM
33 | CCc1cc(O)ccc1-c1ccc2c(-c3nc(C4=CCCN(C(=O)OC)C4)c[nH]3)n[nH]c2c1 [Example 161] | 31.6 to 100 nM | 0.1 to 1 nM |  |  | 1 to 10 nM
34 | CCc1cc(O)ccc1-c1ccc2c(-c3nc(C4=CCCN(Cc5ccccc5)C4)c[nH]3)n[nH]c2c1 [Example 138] | 100 to 316 nM | 0.1 to 1 nM |  |  | 0.1 to 1 nM
35 | CCc1cc(O)ccc1-c1ccc2c(-c3nc(C4=CCCNC4C)c[nH]3)n[nH]c2c1 (stereo not drawn) [Example 233] | 10 to 31.6 nM | 0.1 to 1 nM |  |  | 0.1 to 1 nM
36 | CCc1cc(O)ccc1-c1ccc2c(-c3nc(C4=C[C@@H](C(=O)N5CC(N(C)C)C5)NC4)c[nH]3)n[nH]c2c1F [Example 252] | 100 to 316 nM | 0.1 to 1 nM |  |  | 0.1 to 1 nM
